In US20030171333A1, “Pharmaceutical composition containing at least a polymer combined with or conjugated to at least a phenylalkylcarboxylic acid salt, conjugate polymers and uses thereof” (priority 2000, published 2003):

Tests used:
[1] = tested on: 1205LU human melanoma cells; experiment: Antitumor effect in vivo, 1205LU human melanoma in athymic mice
Description: A group of 14 female athymic mice were subcutaneously inoculated, according to the protocol described above in example 17, with 1205LU human melanoma cells, in a proportion of 10^6 cells per animal.
For a period of five weeks, and at a rate of twice a week, a first group of 4 mice were given an injection of 100 μl of sodium chloride so as to serve as a control group, a second group of 4 mice were given an injection of LS17-NaPAC at a dose of 60 mg/kg/100 μl, and a third group of 6 mice were given an injection of NaPA at a dose of 6.9 mg/kg/100 μl.
The volume of each tumor was measured before the first injection and then once a week for the five weeks of treatment. It was calculated according to the equation defined above in example 17.
Furthermore, at the end of treatment, the mice were sacrificed so as to be able to determine the mass of each of the tumors. […] The treatment with NaPA alone at a dose of 6.9 mg/kg therefore appears to be nonsignificant, contrary to that with LS17-NaPAC at an equivalent dose of 60 mg/kg (p<0.005).

MCF-7 cells [2] = experiment: MTT growth assay; format: cell-based, human
Description: MTT (3-(4,5-dimethylthiazol-2-yl)-2,5-diphenyl-tetrazolium bromide) has the property that it can be reduced in alkaline medium, thus giving a colored compound, blue formazan. Mitochondria, by virtue of their membrane-bound dehydrogenases, are capable of carrying out this reduction. As a result, the number of functional mitochondria, and indirectly the number of live cells, can be quantified as a function of the intensity of the coloration.
(§1) Cells sampled in the exponential growth phase are seeded in 96-well plates in a proportion of 5 000 cells per 200 μl, this being in a DMEM medium supplemented with 2% of FCS, 1% of glutamine and 1% of sodium pyruvate. After incubation for 24 hours, the various concentrations of products to be tested are added in a proportion of 3 wells per concentration. A negative control is prepared without the addition of product.
(§2) After incubation for 72 hours, the cells are washed twice with a buffered saline solution and then 100 μl of MTT are added to each well. After 4 hours of incubation, 100 μl of DMSO are added to the wells before reading the plate 570 nm using a plate reader.
The percentage inhibition I is determined using the equation previously described. The net increase in untreated cells this time corresponds to the cell density contained in the control wells minus that of D0. […]

MCF-7ras tumors = experiment: Antitumor effect in vivo, tumors induced by inoculation of MCF-7ras cells in athymic mice; settings: NaPA 40 mg/kg, injected twice a week, after 7 weeks of treatment; P=0.049
Description: Fifty 3-week-old female athymic mice from the Laboratoire Harlan (Gannat, France) were kept in a temperature-controlled room and subjected to a cycle of light/dark alternating every 12 hours.
Cells of the MCF-7ras tumor line as described above in example 17 were cultured in a DMEM medium supplemented with 10% of FCS until 80% confluency was reached. After centrifugation, the cells were resuspended in DMEM supplemented with 10% of FCS.
Each mouse was then inoculated subcutaneously with these cells, in the proximity of the mammary gland, in a proportion of 5×10^6 cells per animal.
The volume of the tumors (V) was calculated in the following way:
V=(4/3)π(r1)^2)r2); r1 representing the smallest radius of the tumor and r2 the largest radius of the tumor.
Four weeks after inoculation, solutions of NaPA (40 mg/kg) or of dextran LS4 DMCB (150 mg/kg) or of a combination of NaPA (40 mg/kg) and dextran LS4 DMCB (150 mg/kg), prepared in 0.1 ml of sodium chloride, were injected into the mice, twice a week, for 7 weeks for the solutions of NaPA alone and of dextran LS4 DMCB alone. The injections of the combination of NaPA and dextran LS4 DMCB were stopped after six weeks.
For each solution tested, 10 mice chosen randomly from the 50 mice initially inoculated were subjected to the treatment. […]
The volume of each tumor was measured once a week. […]

MCF-7ras cells [3] = experiment: MTT growth assay with isobolic combination index; format: cell-based, human; settings: for NaPA Bc / NaPA Be: used alone
Description: as §1, §2
The percentage inhibition I is determined using the equation previously described. The net increase in untreated cells this time corresponds to the cell density contained in the control wells minus that of D0. As regards the net increase in treated cells, it corresponds to the treated cell density at D72 subtracted with that of D0.
MCF-7 cells transfected with the Ha-ras oncogene (MCF-7ras cells) were cultured in DMEM medium supplemented with 10% of FCS, 2 mM of L-glutamine, 1 mM of sodium pyruvate, 50 units/ml of penicillin and 50 μg/ml of streptomycin, at a temperature of 37° C. and in a humid atmosphere with 5% of CO2.
This was carried out in 96-well microplates under the same conditions as those given above in example 17.
In this example, the effects of the following products, alone or in combination, at various concentrations, were studied on MCF-7ras cell proliferation after incubation for 72 hours:
The percentage inhibition I was calculated as described above in example 17.
The effect of synergy between the dextrans DMCB7 or LS4 DMCB or LS17 and NaPA was calculated using the following isobolic equation (T. Mosmann, J. Immunol. Methods, 1983, 65, 55-63): […]
in which Ac and Bc correspond, respectively, to the concentration of dextran derivative and NaPA used in combination, and Ae and Be correspond to the concentration of each of these two compounds used alone and inducing the same effect; D is the combination index and Dm is the mean combination index. When D or Dm is less than 1, then the combination of the two products has a synergistic effect.
When the concentration of dextran derivative used alone (Ae), making it possible to obtain a percentage inhibition close to that which is obtained when the dextran derivative is used in combination with NaPA, is very high and such that it cannot be determined precisely, then the ratio Ac/Ae tends toward zero and, consequently, D=Bc/Be. Such concentrations of dextran derivatives (Ae) have been indicated in tables II, III and IV below as simply being greater than the concentration given for Ac.
Each experiment was repeated 3 times so as to be able to calculate the statistical significance (P) of the combination index (D or Dm) compared to the additive combination index for the effects (D=1) using the Student's t test.

MCF-7ras cells [4] = experiment: Cell cycle analysis (BrdU/propidium iodide, FACScan); format: cell-based, human; settings: NaPA alone 10 mM, 48 hours
Description: To analyze the cell cycle, the cells were seeded in plates in a proportion of […] and per well in DMEM medium supplemented with 2% of FCS. After culturing for 24 hours, the various tested products were added.
After 72 hours, the MCF-7ras cells were incubated in the presence of BrdU for 4 hours. The cells were then washed with PBS buffer and fixed with 70% ethanol. […] The cells were then centrifuged and resuspended in a staining solution containing […] of propidium iodide (Boehringer Mannheim) for 10 min. The stained cells are then analyzed with a FACScan (Coulter).
Analysis of the distribution of MCF-7ras cells treated with NaPA alone (10 mM), the dextran LS4 DMCB alone (18.5 mM) and a combination thereof (NaPA: 10 mM; LS4 DMCB: 18.5 mM) in the various phases of the cell cycle was carried out after 48 hours of treatment.

MCF-7 cells [5] = experiment: Cell growth assay, cell counting on Coulter Counter ZM; format: cell-based, human
Description: The MCF-7 tumor line is a line of estrogen-sensitive epithelial cells originating from pleural metastases of an infiltrating ductule breast adenocarcinoma. They are cultured in Dulbecco's Modified Eagle Medium (DMEM), supplemented with 10% of fetal calf serum (FCS), 1% of glutamine and 1% of sodium pyruvate. The cells are stored in cryotubes in frozen form in liquid nitrogen. The cryotubes are partially thawed in a water bath at 37° C. 2 ml of complete culture medium are added and the cell suspension is then mixed. Culture flasks (COSTAR® T25) are prepared with culture medium beforehand. The cell suspension is added to the flasks and placed in an incubator at 37° C. with 5% of CO2.
Cells sampled in the exponential growth phase are seeded in 24-well plates in a proportion of 15000 cells per ml and per well, this being in a DMEM medium supplemented with 10% FCS, 1% of sodium pyruvate and 1% of glutamine.
After incubation for 24 hours, the various concentrations of products to be tested are added in the proportion of 4 wells per concentration. These products are diluted in a DMEM medium containing 2% of FCS, 1% of sodium pyruvate and 1% of glutamine, so as to obtain the desired concentrations. The negative control is prepared without the addition of product.
After incubation for 72 hours, the cells are detached and then counted using a Coulter Counter ZM® set on the parameters predefined for MCF-7 cells. The diameter (threshold) of detection is 5 for an attenuation of 32. The latter determines the number of particles of desired diameter contained in the sample. By taking into account the dilution made, the number of cells per ml of initial cell suspension is determined from this value.
%I=[1−(net increase in treated cells/net increase in untreated cells)]×100
The net increase in untreated cells corresponds to the number of cells contained in the control wells (DMEM medium containing 2% FCS) subtracted with the number of cells at D0 (number of cells at the time the products are added to the wells). […]

HUVEC cells = experiment: HUVEC cell proliferation (MTT), antiangiogenic activity in vitro; format: cell-based; settings: tested alone at concentrations equivalent to LS17-NaPAC, 72 hours
Description: Immortalized healthy endothelial cells (HUVEC) were seeded in a proportion of 10000 cells per well and per 100 μl of DMEM medium supplemented with 2% of FCS, in 96-well microplates (COSTAR®). The number of cells was determined after having prepared a standard range.
After culturing for 24 hours, the HUVEC cells were incubated with the various concentrations of the products to be tested prepared in DMEM medium containing 2% of FCS. The absorbance at the time the products were added was measured and compared to the standard range, so as to determine the number of cells.
After culturing for 72 hours, the cell supernatant is removed and 1 wash with PBS buffer containing calcium and magnesium is carried out. 100 μl of a solution of MTT is then added and the cells are incubated for 4 hours. After 4 hours of incubation, the MTT is removed and the crystals which have formed are dissolved with DMSO for 10 minutes with agitation. Absorbance is measured at 570 nm.
The concentration of 10 μg/ml of LS17-NaPAC tested is compared to a concentration of NaPA alone of 1.3216 μg/ml or to a concentration of 8.7 μg/ml of LS17-DMCB alone.

## O=C([O-])Cc1ccccc1.[Na+] [NaPA, sodium phenylacetate]
[1]; NaPA 6.9 mg/kg, end of treatment
  mass of the tumors vs untreated mice: no significant difference
[1]; NaPA 6.9 mg/kg/100 μl, twice a week, five weeks
  effect on tumor growth (tumor volume): does not appear to have a significant effect
MCF-7 cells [2]; concentrations less than 1 mM, MTT
  effect on MCF-7 cells: does not appear to have a significant effect
MCF-7 cells [2]; same inhibition (40 to 50%) as the combination
  concentration of free NaPA giving this same inhibition: 5 mM
MCF-7ras tumors
  inhibition of tumor cell growth: 59%
MCF-7ras cells [3]; NaPA alone at 30 and 40 mM, 72 h
  inhibition of MCF-7ras cell proliferation: 70%
MCF-7ras cells [3]; same effect as DMCB7 0.05 mM + NaPA 5 mM (10% inhibition)
  NaPA Bc: 1 mM
MCF-7ras cells [3]; same effect as DMCB7 0.3 mM + NaPA 5 mM (20% inhibition)
  NaPA Bc: 5 mM
MCF-7ras cells [3]; same effect as DMCB7 1 mM + NaPA 5 mM (38% inhibition)
  NaPA Bc: 10.7 mM
MCF-7ras cells [3]; same effect as DMCB7 1.27 mM + NaPA 5 mM (42% inhibition)
  NaPA Bc: 12 mM
MCF-7ras cells [3]; same effect as DMCB7 1.7 mM + NaPA 5 mM (45% inhibition)
  NaPA Bc: 13 mM
MCF-7ras cells [3]; same effect as DMCB7 2 mM + NaPA 5 mM (50% inhibition)
  NaPA Bc: 20 mM
MCF-7ras cells [3]; same effect as DMCB7 5 mM + NaPA 5 mM (60% inhibition)
  NaPA Bc: 29 mM
MCF-7ras cells [3]; same effect as DMCB7 7 mM + NaPA 5 mM (70% inhibition)
  NaPA Bc: 36 mM
MCF-7ras cells [3]; same effect as LS4 3.7 mM + NaPA 0.75 mM (51.4% inhibition)
  NaPA Bc: 22 mM
MCF-7ras cells [3]; same effect as LS4 7.4 mM + NaPA 1.5 mM (54.8% inhibition)
  NaPA Bc: 23 mM
MCF-7ras cells [3]; same effect as LS4 14.8 mM + NaPA 3 mM (55% inhibition)
  NaPA Bc: 23.3 mM
MCF-7ras cells [3]; same effect as LS4 18.5 mM + NaPA 4 mM (60.2% inhibition)
  NaPA Bc: 29.3 mM
MCF-7ras cells [3]; same effect as LS17 1.53 mM + NaPA 0.5 mM (0% inhibition)
  NaPA Be: 0 mM
MCF-7ras cells [3]; same effect as LS17 3 mM + NaPA 1 mM (16% inhibition)
  NaPA Be: 0.76 mM
MCF-7ras cells [3]; same effect as LS17 6 mM + NaPA 2 mM (17.3% inhibition)
  NaPA Be: 0.83 mM
MCF-7ras cells [3]; same effect as LS17 12 mM + NaPA 4 mM (17.3% inhibition)
  NaPA Be: 0.83 mM
MCF-7ras cells [4]
  distribution of cells in the phases of the cell cycle: blocking of the cells in the G0/G1 phase
MCF-7 cells [5]; Homo sapiens, MCF7, 72 h, read-out: IC50 (minimum dose causing arrest of proliferation of 50% of cells)
  IC50: 5 mM
MCF-7 cells [5]; concentrations greater than 30 mM, reflects cytotoxic effect
  inhibition of cell proliferation: exceeds 100%
MCF-7 cells [5]; same inhibition as maximum effect of NaPAC MF6
  concentration of NaPA alone giving this inhibition: 50 mM
HUVEC cells
  inhibitory effect on HUVEC cell proliferation: do not appear to exhibit an inhibitory effect
